BindingDB's records for patent US12017994 (Symberix, 2024)

Target: Beta-glucuronidase (Escherichia coli (strain K12), UniProt P05804)
Assay: Biological Assay
Method: Successful drug candidate compounds were subjected to numerous biochemical and cellular assays. Purified bacterial β-glucuronidases were challenged with compounds to determine inhibition properties in a standard, robust activity assay, utilizing p-nitrophenyl glucuronide (PNPG) as the enzymatic substrate. Reactions (n=3/inhibitor concentration) were conducted in a 96-well assay, consisting of PNPG substrate (12 concentrations between 25 μM and 5 mM), inhibitor solution (8 concentrations between 0.1 nM and 100 μM), and 5 nM enzyme. […] Purified bovine liver and human β-glucuronidase were dissolved in a reaction mixture containing 1 μM enzyme and 1 mM PNPG as substrate.

Sequence of Beta-glucuronidase (P05804 whole entry): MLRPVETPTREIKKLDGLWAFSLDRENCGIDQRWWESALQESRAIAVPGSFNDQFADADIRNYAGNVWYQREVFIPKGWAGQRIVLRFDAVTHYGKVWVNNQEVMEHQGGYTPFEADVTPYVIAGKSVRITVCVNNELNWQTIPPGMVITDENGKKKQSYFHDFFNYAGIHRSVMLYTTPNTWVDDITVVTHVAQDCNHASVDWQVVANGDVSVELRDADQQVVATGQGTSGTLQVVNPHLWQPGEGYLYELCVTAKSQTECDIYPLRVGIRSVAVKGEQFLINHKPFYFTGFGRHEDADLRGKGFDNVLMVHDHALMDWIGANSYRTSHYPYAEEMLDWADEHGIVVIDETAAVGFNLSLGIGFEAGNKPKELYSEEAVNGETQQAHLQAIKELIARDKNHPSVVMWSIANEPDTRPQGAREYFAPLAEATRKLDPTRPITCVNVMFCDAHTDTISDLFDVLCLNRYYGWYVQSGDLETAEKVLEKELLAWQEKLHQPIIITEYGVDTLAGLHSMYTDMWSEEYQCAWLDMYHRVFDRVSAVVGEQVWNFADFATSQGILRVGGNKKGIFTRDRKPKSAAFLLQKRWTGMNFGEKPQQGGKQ

## COc1cccc(NC(=O)N(CCO)Cc2cc3cc(C)cc(C)c3[nH]c2=O)c1 [US12017994, Ref #36']
  IC50: 3.71 µM

## Cc1cc(C)c2[nH]c(=O)c(CN(CCO)C(=O)Nc3ccc(F)cc3C#C[Si](C)(C)C)cc2c1 [US12017994, Ref #44']
  IC50: 19.1 µM
